Where two headings read alike, the source gives them in different places.
Legend:
[1] = Metabolic stability test in pooled human liver microsomes; format: in vitro ADME; conditions: human liver microsomes 0.5 mg protein/mL, 1 mmol/L NADPH, 37° C., 30 minutes
Procedure, shortened: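 Remaining-rate readout: parent compound left after 30 min versus 0 min (set as 100%), measured by LC/MS/MS or SPE/MS. Oxidative reaction ran at 37° C. with 1 mmol/L NADPH, 0.5 mg protein/mL pooled human microsomes, 50 mmol/L Tris-HCl pH 7.4 buffer.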

[2] = system: Mycobacterium avium ATCC700898; assay: Determination of IC85 against M. avium (resazurin fluorescence); format: cell-based; conditions: Mycobacterium avium
[3] = ATCC700898, M. avium ATCC700898, CAMHB medium, 37° C., 3 days incubation then resazurin, fluorescence one day later, read-out: IC85

SMILES | MS_h_% (remaining amount of compound after reaction, 0 minute = 100%) [1] [%] | IC85 [2, 3] [µM] | IC85 ([2]; ATCC700898) [µM]
COc1ccn2nc(C)c(C(=O)NCc3ccc(N4CCC(c5ccc(OC(F)(F)F)cc5)CC4)c(Cl)c3)c2c1.Cl [Compound I-1-128] | 85 | 0.018 | 
CCc1nc2ccc(Cl)cn2c1C(=O)NCc1ccc(N2CCN(c3ccc(OCC(C)(C)C)cc3)[C@@H](C)C2)c(F)c1.Cl [Compound I-1-56] | 60 | 0.022 | 
COc1ccn2nc(C)c(C(=O)NCc3cc(F)c(N4CCN(c5ccc(OC(F)(F)F)cc5)[C@@H](C)C4)cc3F)c2c1.Cl [Compound I-1-131] | 73 | 0.045 | 
COc1ccn2nc(C)c(C(=O)NCc3ccc(N4CCN(c5ccc(OC(F)(F)F)cc5)[C@@H](C)C4)c(F)c3)c2c1.Cl [Compound I-1-90] | 91 | 0.0052 | 
Cc1ccc2nc(C)c(C(=O)NCc3ccc(-c4ccc(C(F)(F)F)cc4)cc3)n2c1 [Compound I-3-33] | 72.6 | 0.0022 | 
Cc1nc2ccc(Cl)cn2c1C(=O)NCc1cc(F)c2c(c1)CCN(C1CC=C(OC(F)(F)F)CC1)C2.Cl (stereo not drawn) [Compound I-3-24] | 77.5 | 0.13 | 
CCc1nc2ccc(Cl)cn2c1C(=O)NCc1ccc(OC2CCC(Oc3ccc(OC(F)(F)F)cc3)CC2)c(F)c1.Cl (stereo not drawn) [Compound I-3-20] | 80.8 | 0.018 | 
Cc1ccn2c(C(=O)NCc3ccc(N4CCN(c5ccc(OC(F)(F)F)cc5)[C@@H](C)C4)c(C(F)(F)F)c3)c(C)nc2c1 [Compound I-2-15] | 59.2 | 0.25 | 
CCc1nc2cc(Cl)ccn2c1C(=O)NCc1ccc(N2CCN(c3ccc(OC(F)(F)F)cc3)[C@@H](C)C2)c(F)c1 [Compound I-1-35] | 91 | 0.026 | 
CCc1nc2ccc(Cl)cn2c1C(=O)NCc1ccc(N2CCN(c3ccc(OC(C)C)cc3)C(C)(C)C2)c(F)c1 [Compound I-1-28] | 94 | 0.012 | 
CCc1nc2ccc(Cl)cn2c1C(=O)NCc1ccc(-c2ccc(OC(C)C)cc2)c(F)c1 [Compound I-3-3] | 96.1 | 0.0094 | 
Cc1nc2cc(C(F)(F)F)ccn2c1C(=O)NCc1ccc(C2CCN(c3ccc(OC(F)(F)F)cc3)CC2)c(F)c1 [Compound I-1-14] | 79 | 0.76 | 
Cc1nc2ccc(Cl)cn2c1C(=O)NCc1ccc(N2CCC(c3ccc(OC(F)(F)F)cc3)CC2)c(F)c1.Cl [Compound I-1-63] | 95 | 0.012 | 
CCc1nc2ccc(Cl)cn2c1C(=O)NCc1ccc(C2=C[C@H](C)N(c3ccc(OC(F)(F)F)cc3)CC2)c(F)c1.Cl [Compound I-1-107] | 71 | 0.007 | 
Cc1ccn2c(C(=O)NCc3ccc(N4CCN(CC(F)F)CC4)c(F)c3)cnc2c1 [Compound I-3-42] | 64.6 | 0.93 | 
COc1ccn2nc(C)c(C(=O)NCc3ccc(C4CCN(c5ccc(OC(F)(F)F)cc5)CC4)c(F)c3)c2c1.Cl [Compound I-1-89] | 65 | 0.0072 | 
CCc1nc2cc(F)ccn2c1C(=O)NCc1ccc(N2CCN(c3ccc(OC(F)(F)F)cc3)[C@@H](CC)C2)c(F)c1.Cl [Compound I-2-4] | 90.1 | 0.0065 | 
CCc1nc2cc(F)ccn2c1C(=O)NCc1ccc(N2CCN(c3ccc(OC4CC4)cc3)[C@@H](C)C2)c(F)c1.Cl [Compound I-1-110] | 80 | 0.0093 | 
Cc1ccc2nc(C)c(C(=O)NCc3ccc(C4CCN(c5ccc(OC(F)(F)F)cc5)CC4)c(F)c3)n2c1 [Compound I-1-16] | 67 | 0.0016 | 
Cc1ccn2c(C(=O)NCc3ccc(C4CCN(c5ccc(OC(F)(F)F)cn5)CC4)cc3F)c(C)nc2c1 [Compound I-1-11] | 72 | 0.089 | 
CCc1nc2cc(Cl)ccn2c1C(=O)NCc1ccc(N2CCN(c3ccc(OC(F)(F)F)cc3)[C@H](C)C2)c(F)c1.Cl [Compound I-1-83] | 85 | 0.62 | 
CCc1nc2cc(F)ccn2c1C(=O)NCc1ccc(N2CCN(c3cc(F)c(OC(F)(F)F)c(F)c3)[C@@H](C)C2)c(F)c1.Cl [Compound I-1-119] | 63 | 0.0065 | 
Cc1nc2ccc(F)cn2c1C(=O)NCc1ccc(N2CCN(c3ccc(OC(F)(F)F)cc3)[C@H](C)C2)c(F)c1.Cl [Compound I-1-84] | 86 | 0.038 | 

SMILES | MS_h_% (remaining amount of compound after reaction, 0 minute = 100%) [1] [%] | IC85 [2, 3] [µM] | IC85 ([2]; ATCC700898) [µM]
CCCCOc1ccc(N2CCC(c3ccc(CNC(=O)c4c(CC)nc5ccc(Cl)cn45)cc3F)CC2)cc1.Cl [Compound I-1-78] | 69 | 0.037 | 
CCc1nc2ccc(Cl)cn2c1C(=O)NCc1ccc(N2CCN(c3ccc(OC(F)(F)F)cc3)[C@@H](C)C2)c(F)c1F.Cl [Compound I-1-93] | 67 | 0.011 | 
Cc1ccc2nc(Cl)c(C(=O)NCc3ccc(N4CCN(c5ccc(OC(F)(F)F)cc5)[C@@H](C)C4)c(F)c3)n2c1.Cl [Compound I-1-57] | 84 | 0.0036 | 
Cc1cn2c(C(=O)NCc3ccc(N4CCC(c5ccc(OC(F)(F)F)cc5)CC4)c(Cl)c3)c(C)nc2s1.Cl [Compound I-3-13] | 84 | 0.35 | 
Cc1cn2c(C(=O)NCc3ccc(N4CCC(c5ccc(OC(F)(F)F)cc5)CC4)c(F)c3)c(C)nc2s1.Cl [Compound I-3-6] | 91.7 | 0.26 | 
CCc1nc2cc(F)ccn2c1C(=O)NCc1ccc(O[C@H]2C[C@H](Oc3ccc(OC(F)(F)F)cc3)C2)c(F)c1.Cl [Compound I-3-1] | 99.1 | 0.054 | 
CCOc1ccc(N2CCN(c3ccc(CNC(=O)c4c(CC)nc5ccc(Cl)cn45)cc3F)C[C@@H]2C)cc1 [Compound I-1-44] | 69 | 0.011 | 
CCc1nc2cc(F)ccn2c1C(=O)NCc1ccc(N2CCN(c3ccc(OC(F)(F)F)cc3)[C@@H](C)C2)c(F)c1 [Compound I-1-38] | 90 | 0.0013 | 
CCc1nc2cc(F)ccn2c1C(=O)NCc1ccc(N2CCN(c3ccc(OCC(F)(F)F)nc3)[C@@H](C)C2)c(F)c1.Cl [Compound I-1-116] | 87 | 0.011 | 
Cc1ccn2nc(C(F)(F)F)c(C(=O)NCc3ccc(N4CCN(c5ccc(OC(F)(F)F)cc5)[C@@H](C)C4)c(F)c3)c2c1.Cl [Compound I-1-126] | 77 | 0.27 | 
CCOc1ccc(N2CCN(c3ccc(CNC(=O)c4c(CC)nc5cc(F)ccn45)cc3F)C[C@@H]2C)cc1.Cl [Compound I-1-109] | 80 | 0.0071 | 
Cc1ccc2nc(C)c(C(=O)NCc3ccc(S(F)(F)(F)(F)F)cc3)n2c1 [Compound I-3-44] | 63.9 | 0.11 | 
Cc1ccc2nc(C)c(C(=O)NCc3ccc(Oc4cccc(C(F)(F)F)c4)cc3)n2c1 [Compound I-3-21] | 79.1 | 0.13 | 
CCc1nc2ccc(Cl)cn2c1C(=O)NCc1ccc(-n2cc3c(n2)CN(c2ccc(OC(F)(F)F)cc2)C3)c(F)c1.Cc1ccc(S(=O)(=O)O)cc1 [Compound I-3-45] | 63.2 |  | 0.0046
CCc1nc2cc(C)c(Cl)cn2c1C(=O)NCc1ccc(N2CCN(c3ccc(OC(F)(F)F)cc3)[C@@H](C)C2)c(F)c1 [Compound I-1-48] | 69 | 0.035 | 
CCCC[C@H]1CN(c2ccc(CNC(=O)c3c(CC)nc4cc(F)ccn34)cc2F)CCN1c1ccc(OC(F)(F)F)cc1.Cl [Compound I-2-6] | 80.8 | 0.0044 | 
Cc1ccn2c(C(=O)NCc3ccc(C4CCN(c5cccc(OC(F)(F)F)c5)CC4)c(F)c3)c(C)nc2c1 [Compound I-1-19] | 87 | 0.13 | 
CCc1nc2cc(F)ccn2c1C(=O)NCc1ccc(N2CCN(c3ccc(C(F)(F)F)cc3)[C@@H](C)C2)c(F)c1.Cl [Compound I-1-112] | 69 | 0.0014 | 
CCc1nc2cc(F)ccn2c1C(=O)NCc1ccc(N2CCN(c3ccc(OC(F)(F)F)cc3F)[C@@H](C)C2)c(F)c1.Cl [Compound I-1-118] | 97 | 0.0076 | 
Cc1ccn2c(C(=O)NCc3ccc(C4CCN(c5ccc(OC(C)C)cc5)CC4)cc3F)c(C)nc2c1 [Compound I-1-9] | 82 | 0.94 | 
Cc1ccn2c(C(=O)NCc3ccc(C4CCN(c5ccc(OC(F)(F)F)cc5)CC4)c(F)c3)c(C(F)(F)F)nc2c1 [Compound I-1-15] | 71 | 0.057 | 
Cc1cn2c(C(=O)NCc3ccc(Oc4cccc(C(F)(F)F)c4)cc3)c(C)nc2s1 [Compound I-3-46] | 63.1 | 0.61 | 

— US20220340566A1, “BENZYL AMINE-CONTAINING 5,6-HETEROAROMATIC COMPOUNDS USEFUL AGAINST MYCOBACTERIAL INFECTION” (priority 2019, published 2022)
